Reference: patent publication US7601746B2 (Shionogi & Co., Ltd., priority 2003, dated 2009)

Target: T1, human TPO receptor (hTPOR) (Homo sapiens, UniProt P40238)
T1 construct: expressed in transfected cells; host or cells: BaF-B03 (murine IL-3 dependent cell line)
T1 sequence (P40238 26-635): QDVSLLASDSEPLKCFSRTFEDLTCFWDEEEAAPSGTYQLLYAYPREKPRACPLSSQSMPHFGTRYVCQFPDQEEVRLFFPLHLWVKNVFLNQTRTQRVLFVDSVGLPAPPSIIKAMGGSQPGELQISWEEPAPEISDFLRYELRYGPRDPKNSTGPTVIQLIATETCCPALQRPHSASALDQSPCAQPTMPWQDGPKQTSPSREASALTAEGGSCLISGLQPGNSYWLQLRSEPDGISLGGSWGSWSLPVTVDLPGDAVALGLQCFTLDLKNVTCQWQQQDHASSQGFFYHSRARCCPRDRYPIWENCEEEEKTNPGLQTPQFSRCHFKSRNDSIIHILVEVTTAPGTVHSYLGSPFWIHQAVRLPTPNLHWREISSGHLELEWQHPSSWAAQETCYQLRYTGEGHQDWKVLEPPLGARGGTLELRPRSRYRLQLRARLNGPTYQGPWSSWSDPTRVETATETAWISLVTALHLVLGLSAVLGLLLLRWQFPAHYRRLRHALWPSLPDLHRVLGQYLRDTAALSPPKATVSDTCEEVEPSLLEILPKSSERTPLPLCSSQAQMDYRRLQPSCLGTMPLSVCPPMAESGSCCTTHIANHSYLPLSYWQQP
Assay: Thrombopoietic activity: proliferation of TPO dependent BaF/hTPOR cells (WST-1, absorbance at 450 nm)
Type: cell-based
Conditions: 20 h + 4 h WST-1, ED50 = half concentration of the concentration showing the maximum thrombopoietic activity, Table 1
In short: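 Proliferation read-out: WST-1 absorbance at 450 nm after 20 h compound exposure plus 4 h reagent, using IL-3-deprived BaF/hTPOR cells (5×10^4 per well) dependent on human TPO receptor signalling. ED50 defined as half the concentration producing maximal activity.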

Row | EC50 [nM] | SMILES
1 | 10.1 | CCCCCCCOCCc1cccc(-c2csc(NC(=O)c3cc(F)c(/C=C(\C)C(=O)O)c(F)c3)n2)c1OC [Compound B1952, (E)-3-(2,6-difluoro-4-{4-[3-(2-heptyloxyethyl)-2-methyloxyphenyl]thiazol-2-ylcarbamoyl}phenyl)-2-methylacrylic acid]
2 | 10.1 | CCCCCCCOCCc1cccc(-c2csc(NC(=O)c3cc(F)c(/C=C(\OC)C(=O)O)c(F)c3)n2)c1OC [Compound B1953, (Z)-3-(2,6-difluoro-4-{4-[3-(2-heptyloxyethyl)-2-methyloxyphenyl]thiazol-2-ylcarbamoyl}phenyl)-2-methyloxyacrylic acid]
3 | 12.9 | COc1c(CCOCCC(C)C)cccc1-c1csc(NC(=O)c2cc(F)c(/C=C(\C)C(=O)O)c(F)c2)n1 [Compound B1954]
4 | 11.7 | COc1c(CCOCCC(C)C)cccc1-c1csc(NC(=O)c2cc(Cl)c(/C=C(\C)C(=O)O)c(Cl)c2)n1 [Compound B1955]
5 | 15.1 | CO/C(=C\c1c(F)cc(C(=O)Nc2nc(-c3cccc(CCOCCC(C)C)c3OC)cs2)cc1F)C(=O)O [Compound B1956]
6 | 12.8 | COc1c(CCOCC2CCCCC2)cccc1-c1csc(NC(=O)c2cc(F)c(/C=C(\C)C(=O)O)c(F)c2)n1 [Compound B1957]
7 | 7.57 | CCC(CC)COCCc1cccc(-c2csc(NC(=O)c3cc(Cl)c(/C=C(\C)C(=O)O)c(Cl)c3)n2)c1OC [Compound B1958, (E)-3-[2,6-dichloro-4-(4-{3-[2-(2-ethylbutyloxy)ethyl]-2-methyloxyphenyl}thiazol-2-ylcarbamoyl)phenyl]-2-methylacrylic acid]
8 | 11.3 | CCC(CC)COCCc1cccc(-c2csc(NC(=O)c3cc(F)c(/C=C(\C)C(=O)O)c(F)c3)n2)c1OC [Compound B1959, (E)-3-[4-(4-{3-[2-(2-ethylbutyloxy)ethyl]-2-methyloxyphenyl}thiazol-2-ylcarbamoyl)-2,6-difluorophenyl]-2-methylacrylic acid]
9 | 10.1 | CCC(CC)COCCc1cccc(-c2csc(NC(=O)c3cc(Cl)c(/C=C(\OC)C(=O)O)c(Cl)c3)n2)c1OC [Compound B1960, (Z)-3-[2,6-dicholoro-4-(4-{3-[2-(2-ethylbutyloxy)ethyl]-2-methyloxyphenyl}thiazol-2-ylcarbamoyl)phenyl]-2-methyloxyacrylic acid]
10 | 12.1 | CCCCCCCOCc1cccc(-c2csc(NC(=O)c3cc(F)c(/C=C(\C)C(=O)O)c(F)c3)n2)c1OC [Compound B1990, (E)-3-{2,6-difluoro-4-[4-(3-heptyloxymethyl-2-methyloxyphenyl)thiazol-2-ylcarbamoyl]phenyl}-2-methylacrylic acid]
11 | 13.2 | CCCCCCCOCc1cccc(-c2csc(NC(=O)c3cc(Cl)c(/C=C(\C)C(=O)O)c(Cl)c3)n2)c1OC [Compound B1991, (E)-3-{2,6-dichloro-4-[4-(3-heptyloxymethyl-2-methyloxyphenyl)thiazol-2-ylcarbamoyl]phenyl}-2-methylacrylic acid]

Second part, the molecule before the results:

Row | SMILES | EC50 [nM]
12 | CCCCCOCCc1cccc(-c2csc(NC(=O)c3cc(Cl)c(/C=C(\C)C(=O)O)c(Cl)c3)n2)c1OC [Compound B1925, (E)-3-(2,6-dichloro-4-{4-[2-methyloxy-3-(2-pentyloxyethyl)phenyl]thiazol-2-ylcarbamoyl)phenyl)-2-methylacrylic acid] | 18.4
13 | CCCCCCOCCc1cccc(-c2csc(NC(=O)c3cc(F)c(/C=C(\C)C(=O)O)c(F)c3)n2)c1OC [Compound B1926, (E)-3-(2,6-difluoro-4-{4-[3-(2-hexyloxyethyl)-2-methyloxyphenyl]thiazol-2-ylcarbamoyl)phenyl)-2-methylacrylic acid] | 15.6
14 | CCCCCCOCCc1cccc(-c2csc(NC(=O)c3cc(F)c(/C=C(\OC)C(=O)O)c(F)c3)n2)c1OC [Compound B1927, (Z)-3-(2,6-difluoro-4-{4-[3-(2-hexyloxyethyl)-2-methyloxyphenyl]thiazol-2-ylcarbamoyl)phenyl)-2-methyloxyacrylic acid] | 19.4
15 | CCCCCCOCCc1cccc(-c2csc(NC(=O)c3cc(Cl)c(/C=C(\C)C(=O)O)c(Cl)c3)n2)c1OC [Compound B1928, (E)-3-(2,6-dichloro-4-{4-[3-(2-hexyloxyethyl)-2-methyloxyphenyl]thiazol-2-ylcarbamoyl)phenyl)-2-methylacrylic acid] | 12.6
16 | COc1c(COCC(C)(C)C)cccc1-c1csc(NC(=O)c2cc(F)c(/C=C(\C)C(=O)O)c(F)c2)n1 [Compound B1933, (E)-3-(4-{4-[3-(2,2-dimethylpropyloxymethyl)-2-methyloxyphenyl]thiazol-2-ylcarbamoyl}-2,6-difluorophenyl)-2-methylacrylic acid] | 7.88
17 | COc1c(COCCC(C)(C)C)cccc1-c1csc(NC(=O)c2cc(F)c(/C=C(\C)C(=O)O)c(F)c2)n1 [Compound B1934, (E)-3-(4-{4-[3-(3,3-dimethylbutyloxymethyl)-2-methyloxyphenyl]thiazol-2-ylcarbamoyl}-2,6-difluorophenyl)-2-methylacrylic acid] | 13
18 | COc1c(COCCCC(C)C)cccc1-c1csc(NC(=O)c2cc(F)c(/C=C(\C)C(=O)O)c(F)c2)n1 [Compound B1938] | 12.7
19 | COc1c(COCCCC(C)C)cccc1-c1csc(NC(=O)c2cc(Cl)c(/C=C(\C)C(=O)O)c(Cl)c2)n1 [Compound B1940] | 18.8
20 | COc1c(CCCOCC2CC2)cccc1-c1csc(NC(=O)c2cc(Cl)c(/C=C(\C)C(=O)O)c(Cl)c2)n1 [Compound B1945, (E)-3-(2,6-dichloro-4-{4-[3-(3-cyclopropylmethyloxypropyl)-2-methyloxyphenyl]thiazol-2-ylcarbamoyl}phenyl)-2-methylacrylic acid] | 19.3
21 | COc1c(CCCOCC2CCCC2)cccc1-c1csc(NC(=O)c2cc(F)c(/C=C(\C)C(=O)O)c(F)c2)n1 [Compound B1948, (E)-3-(4-{4-[3-(3-cyclopentylmethyloxypropyl)-2-methyloxyphenyl]thiazol-2-ylcarbamoyl}-2,6-difluorophenyl)-2-methylacrylic acid] | 10.9
22 | COc1c(CCCOCC2CCCC2)cccc1-c1csc(NC(=O)c2cc(Cl)c(/C=C(\C)C(=O)O)c(Cl)c2)n1 [Compound B1949, (E)-3-(2,6-dichloro-4-{4-[3-(3-cyclopentylmethyloxypropyl)-2-methyloxyphenyl]thiazol-2-ylcarbamoyl}phenyl)-2-methylacrylic acid] | 13.2

Same assay, conditions: 20 h + 4 h WST-1, ED50 = half concentration of the concentration showing the maximum thrombopoietic activity, Table 2

Row | EC50 [nM] | SMILES
23 | 22.3 | CO/C(=C\c1c(Cl)cc(C(=O)Nc2nc(-c3cccc(CCCOCC4CCCC4)c3OC)cs2)cc1Cl)C(=O)O [Compound B1951, (Z)-3-(2,6-dichloro-4-{4-[3-(3-cyclopentylmethyloxypropyl)-2-methyloxyphenyl]thiazol-2-ylcarbamoyl}phenyl)-2-methyloxyacrylic acid]
24 | 28.6 | COc1c(CCOCCCCCl)cccc1-c1csc(NC(=O)c2cc(Cl)c(/C=C(\C)C(=O)O)c(Cl)c2)n1 [Compound B1963, (E)-3-[2,6-dichloro-4-(4-{3-[2-(4-chlorobutyloxy)ethyl]-2-methyloxyphenyl}thiazol-2-ylcarbamoyl)phenyl]-2-methylacrylic acid]

Further lines, the molecule ahead of its results:

Row | SMILES | EC50 [nM]
25 | CO/C(=C\c1c(Cl)cc(C(=O)Nc2nc(-c3cccc(CCOCCCC(C)C)c3OC)cs2)cc1Cl)C(=O)O [Compound B1923, (Z)-3-[2,6-dichloro-4-(4-{2-methyloxy-3-[2-(4-methylpentyloxy)ethyl]phenyl}thiazol-2-ylcarbamoyl)phenyl)-2-methyloxyacrylic acid] | 20.2
26 | CCCCCOCCc1cccc(-c2csc(NC(=O)c3cc(F)c(/C=C(\C)C(=O)O)c(F)c3)n2)c1OC [Compound B1924, (E)-3-(2,6-difluoro-4-{4-[2-methyloxy-3-(2-pentyloxyethyl)phenyl]thiazol-2-ylcarbamoyl)phenyl)-2-methylacrylic acid] | 20.6
27 | CCCCCCOCCc1cccc(-c2csc(NC(=O)c3cc(Cl)c(/C=C(\OC)C(=O)O)c(Cl)c3)n2)c1OC [Compound B1929, (Z)-3-(2,6-dichloro-4-{4-[3-(2-hexyloxyethyl)-2-methyloxyphenyl]thiazol-2-ylcarbamoyl)phenyl)-2-methyloxyacrylic acid] | 25.8
28 | CO/C(=C\c1c(F)cc(C(=O)Nc2nc(-c3cccc(COCCC(C)(C)C)c3OC)cs2)cc1F)C(=O)O [Compound B1935, (Z)-3-(4-{4-[3-(3,3-dimethylbutyloxymethyl)-2-methyloxyphenyl]thiazol-2-ylcarbamoyl}-2,6-difluorophenyl)-2-methyloxyacrylic acid] | 25.4
29 | CO/C(=C\c1c(Cl)cc(C(=O)Nc2nc(-c3cccc(COCCC(C)(C)C)c3OC)cs2)cc1Cl)C(=O)O [Compound B1937, (Z)-3-(2,6-dichloro-4-{4-[3-(3,3-dimethylbutyloxymethyl)-2-methyloxyphenyl]thiazol-2-ylcarbamoyl}phenyl)-2-methyloxyacrylic acid] | 23.1
30 | CO/C(=C\c1c(Cl)cc(C(=O)Nc2nc(-c3cccc(COCCCC(C)C)c3OC)cs2)cc1Cl)C(=O)O [Compound B1941] | 24.1
